Experimental data from US10995322B2, “Processes to prepare elongated 2-ketoacids and C5-C10 compounds therefrom via genetic modifications to microbial metabolic pathways” (priority 2016, dated 2021).

Experiments:
CCCCCCC(=O)C(=O)O = test: purified protein, by the assay type; conditions: pH 7.5; 30.0 °C
[1] = system: CC(=O)SCCNC(=O)CCNC(=O)[C@H](O)C(C)(C)COP(=O)(O)OP(=O)(O)OC[C@H]1O[C@@H](n2cnc3c(N)ncnc32)[C@H](O)[C@@H]1OP(=O)(O)O; test: purified protein, by the assay type; conditions: pH 7.5; 30.0 °C
[2] = target: Enterobacter cloacae isopropylmalate synthase (Gene Accession No. WP_014830637, SEQ ID NO: 2) variant 1460, D348E/D350E/M353L/Q355N/H97A/S139G/N167G/P169A/G462D (Enterobacter cloacae, UniProt A0A0H3CGL5, D348E/D350E/G462D/H97A/M353L/N167G/P169A/Q355N/S139G); conditions: pH 7.5, 30° C.
[3] = target: Citrobacter freundii MGH 56 isopropylmalate synthase (Gene Accession No. KDF09799, SEQ ID NO: 1) variant 1409, H97A/S139G/N167G/P169A/G462D (Citrobacter freundii, UniProt A0A0D7LMP4, G462D/H97A/N167G/P169A/S139G); conditions: pH 7.5, 30° C.
[4] = target: Citrobacter freundii MGH 56 isopropylmalate synthase (Gene Accession No. KDF09799, SEQ ID NO: 1) variant 1467, G181A/A182G/G210A/A214S/H97A/S139G/N167G/P169A/G4 (Citrobacter freundii, UniProt A0A0D7LMP4, A182G/A214S/G181A/G210A/G462D/H97A/N167G/P169A/S139G); conditions: pH 7.5, 30° C.
[5] = system: Citrobacter freundii MGH 56 isopropylmalate synthase (Gene Accession No. KDF09799, SEQ ID NO: 1) variant 1467, G181A/A182G/G210A/A214S/H97A/S139G/N167G/P169A/G4 …; conditions: 2-ketooctanoate
[6] = target: Enterobacter cloacae isopropylmalate synthase (Gene Accession No. WP_014830637, SEQ ID NO: 2) variant 1414, H97A/S139G/N167G/P169A/G462D (Enterobacter cloacae, UniProt A0A0H3CGL5, G462D/H97A/N167G/P169A/S139G); conditions: pH 7.5, 30° C.
[7] = target: Enterobacter cloacae isopropylmalate synthase (Gene Accession No. WP_014830637, SEQ ID NO: 2) variant 1457, M255L/R260A/N264Q/H97A/S139G/N167G/P169A/G462D (Enterobacter cloacae, UniProt A0A0H3CGL5, G462D/H97A/M255L/N167G/N264Q/P169A/R260A/S139G); conditions: pH 7.5, 30° C.
[8] = target: Citrobacter freundii MGH 56 isopropylmalate synthase (Gene Accession No. KDF09799, SEQ ID NO: 1) variant 1466, G210A/A214S/H97A/S139G/N167G/P169A/G462D (Citrobacter freundii, UniProt A0A0D7LMP4, A214S/G210A/G462D/H97A/N167G/P169A/S139G); type: biochemical; conditions: acetyl-CoA 0-10 mM, 2-ketooctanoate 2 mM, pH 7.5, 30° C.
[9] = substrate: CC(=O)SCCNC(=O)CCNC(=O)[C@H](O)C(C)(C)COP(=O)(O)OP(=O)(O)OC[C@H]1O[C@@H](n2cnc3c(N)ncnc32)[C@H](O)[C@@H]1OP(=O)(O)O; test: Kinetic evaluation of isopropylmalate synthase construct 614 (DTNB/CoASH assay); type: biochemical, E. coli; conditions: other: acetyl-CoA 0-10 mM, 2-ketooctanoate 2 mM, pH 7.5, 30° C.
Protocol: (§1) Codons of 13 additional amino acids that included six histidine's were fused upstream of the codon of Met-1 of each IPMS gene sequence. Such a modification allowed expression of a His-tagged IPMS having 13 additional amino acids on the N-terminus. To the resulting modified gene, additional bases were added to introduce a NcoI and a SacI restriction site at the 5′- and 3′-end, respectively, for cloning purposes. The whole DNA sequence was chemically synthesized and cloned into the E. coli expression vector, pETDuet-1 at the NcoI and SacI sites by SGI Inc. His-tagged IPMSs were heterologously expressed in E. coli BL21 (DE3) cells and purified using Co-NTA chromatography. It is noted that none of the Sequence Listings included herein show the histidine-tag that is used, which in this case is […]
(§2) For expressing isopropylmalate synthases and its variants, competent cells of E. coli BL21(DE3) cells (acquired from EMD Biosciences) were transformed using standard procedures with the pETDuet expression vector containig their gene sequences. Cells harboring the expression vector were selected on LB agar plates containing 50 μg/mL of ampicillin. A starter culture was started by transferring a single colony of transformant into 50 mL of LB medium containing 100 μg/mL of ampicillin and incubated at 37° C. with shaking at 220 rpm overnight. On the next day, 7 mL of starter culture was inoculated into 800 mL of Terrific Broth (TB) and the culture was incubated at 37° C. until it reached an OD600 nm of 0.5. Isopropyl β-D-1-thiogalacto-pyranoside (IPTG) at a final concentration of 1 mM was added to induce the expression of the isopropylmalate synthase or its variant and the culture was transferred to a 15° C. incubator for 16 hours (h). At the end of 16 h, the culture was centrifuged at 8000 revolutions per minute (rpm) to pelletize the cells. The cell pellet was stored at −80° C. overnight before purification.
(§3) For isolation and purification of the enzyme, cell pellet taken from 400 mL of expression culture was suspended in B-PER reagent (Thermo Fisher Scientific, Inc., Rockford, Ill.) containing 1 μg/mL of DNAse (Thermo Fisher Scientific, Inc., Rockford, Ill.), 1 μg/mL of lysozyme (Thermo Fisher Scientific, Inc., Rockford, Ill.), 1 millimolar (mM) of dithiothreitol, and protease inhibitor cocktail (RPI Corp., Mount Prospect, Ill.). The suspension was rocked gently for 30 minutes (min) at room temperature and centrifuged at 15,000 times gravity (×g) for 20 min to pelletize cell debris. The supernatant was separated and incubated with 5 mL of Co-NTA resin (Thermo Fisher Scientific, Inc., Rockford, Ill.) that had been pre-equilibrated with an equilibration buffer (50 mM sodium phosphate, pH 8.0, containing 300 mM sodium chloride, 20 mM imidazole, 50 μL protease inhibitor cocktail, and 15% glycerol). Following an incubation period of 1 h at 4° C., the enzyme bound resin was washed with 5 volumes of equilibration buffer. Isopropylmalate synthase or its variants were eluted from the Co-NTA resin with equilibration buffer containing 200 mM imidazole. The eluted proteins were dialyzed against phosphate buffered saline and stored as a 20% glycerol solution at −20° C.
(§4) The evaluation of the LeuA variants was performed in two steps using the high-throughput enzyme assay described below. Initially, all the variants were tested for activity against a single high concentration of 2-KBut, 2-KHex, and 2-KOct. The spectrophotometric isopropylmalate synthase enzyme assay reported by Marcheschi et al (Marcheschi, R. J.; Li, H.; Zhang, K.; Noey, E. L.; Kim, S.; Chaubey, A.; Houk, K. N.; Liao, J. C. A synthetic recursive “+1” pathway for carbon chain elongation. ACS chemical biology 2012, 7, 689-697) was adapted into a high-throughput format in 96-well plates for the kinetic evaluation of the isopropylmalate synthase variants (shown in Table 1). […]

[10] = substrate: CCCCCCC(=O)C(=O)O; test: as above; type: biochemical, E. coli; conditions: other: 2-ketooctanoate 0-3.2 mM, acetyl-CoA 2 mM, pH 7.5, 30° C.
Protocol: as §1, §2, §3, §4

[11] = 2-ketooctanoate 0-3.2 mM, acetyl-CoA 2 mM
[12] = acetyl-CoA 0-10 mM, 2-ketooctanoate 2 mM

Chain of Citrobacter freundii MGH 56 isopropylmalate synthase (Gene Accession No. KDF09799, SEQ ID NO: 1) variant 1467, G181A/A182G/G210A/A214S/H97A/S139G/N167G/P169A/G4 (A0A0D7LMP4 entry or part of it A182G/A214S/G181A/G210A/G462D/H97A/N167G/P169A/S139G): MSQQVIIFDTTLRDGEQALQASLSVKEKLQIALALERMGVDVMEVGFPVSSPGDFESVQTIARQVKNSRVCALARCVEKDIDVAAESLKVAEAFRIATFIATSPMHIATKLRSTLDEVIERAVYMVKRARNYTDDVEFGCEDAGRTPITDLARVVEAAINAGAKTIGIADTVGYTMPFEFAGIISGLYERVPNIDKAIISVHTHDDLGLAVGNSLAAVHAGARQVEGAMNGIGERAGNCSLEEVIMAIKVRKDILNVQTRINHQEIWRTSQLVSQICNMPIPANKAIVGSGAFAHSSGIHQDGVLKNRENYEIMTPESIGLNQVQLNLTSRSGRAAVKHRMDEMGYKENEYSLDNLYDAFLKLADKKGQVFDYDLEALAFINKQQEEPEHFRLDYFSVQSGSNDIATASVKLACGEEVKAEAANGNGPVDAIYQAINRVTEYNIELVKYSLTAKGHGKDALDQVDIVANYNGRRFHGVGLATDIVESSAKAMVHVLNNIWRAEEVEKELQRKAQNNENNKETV
Chain of Enterobacter cloacae isopropylmalate synthase (Gene Accession No. WP_014830637, SEQ ID NO: 2) variant 1460, D348E/D350E/M353L/Q355N/H97A/S139G/N167G/P169A/G462D (A0A0H3CGL5 entry or part of it D348E/D350E/G462D/H97A/M353L/N167G/P169A/Q355N/S139G): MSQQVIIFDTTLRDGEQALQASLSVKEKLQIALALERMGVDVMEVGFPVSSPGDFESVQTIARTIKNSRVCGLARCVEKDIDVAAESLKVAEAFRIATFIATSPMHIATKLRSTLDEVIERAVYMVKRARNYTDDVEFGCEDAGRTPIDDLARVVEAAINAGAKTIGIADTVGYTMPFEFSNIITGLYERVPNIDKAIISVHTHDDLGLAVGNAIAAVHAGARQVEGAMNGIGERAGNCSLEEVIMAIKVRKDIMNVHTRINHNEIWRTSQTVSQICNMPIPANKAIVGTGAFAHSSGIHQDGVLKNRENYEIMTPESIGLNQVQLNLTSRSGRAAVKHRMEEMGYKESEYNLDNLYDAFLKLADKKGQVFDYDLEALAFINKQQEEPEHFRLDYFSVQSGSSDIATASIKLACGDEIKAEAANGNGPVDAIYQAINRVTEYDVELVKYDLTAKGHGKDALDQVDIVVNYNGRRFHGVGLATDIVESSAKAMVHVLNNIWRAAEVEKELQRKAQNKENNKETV
Chain of Citrobacter freundii MGH 56 isopropylmalate synthase (Gene Accession No. KDF09799, SEQ ID NO: 1) variant 1409, H97A/S139G/N167G/P169A/G462D (A0A0D7LMP4 entry or part of it G462D/H97A/N167G/P169A/S139G): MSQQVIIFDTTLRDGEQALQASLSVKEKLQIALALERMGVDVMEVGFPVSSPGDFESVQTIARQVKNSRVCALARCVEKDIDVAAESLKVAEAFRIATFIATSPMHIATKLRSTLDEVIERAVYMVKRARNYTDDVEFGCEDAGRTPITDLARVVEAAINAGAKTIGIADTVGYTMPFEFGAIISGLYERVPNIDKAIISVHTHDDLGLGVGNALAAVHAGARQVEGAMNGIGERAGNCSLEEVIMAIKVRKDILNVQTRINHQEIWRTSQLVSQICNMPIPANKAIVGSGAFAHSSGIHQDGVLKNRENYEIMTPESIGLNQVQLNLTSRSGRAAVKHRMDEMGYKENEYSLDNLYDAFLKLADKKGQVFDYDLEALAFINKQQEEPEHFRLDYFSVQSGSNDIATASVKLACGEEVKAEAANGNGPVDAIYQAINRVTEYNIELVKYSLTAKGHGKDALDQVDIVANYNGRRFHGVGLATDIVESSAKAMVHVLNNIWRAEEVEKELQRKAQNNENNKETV
Chain of Enterobacter cloacae isopropylmalate synthase (Gene Accession No. WP_014830637, SEQ ID NO: 2) variant 1414, H97A/S139G/N167G/P169A/G462D (A0A0H3CGL5 entry or part of it G462D/H97A/N167G/P169A/S139G): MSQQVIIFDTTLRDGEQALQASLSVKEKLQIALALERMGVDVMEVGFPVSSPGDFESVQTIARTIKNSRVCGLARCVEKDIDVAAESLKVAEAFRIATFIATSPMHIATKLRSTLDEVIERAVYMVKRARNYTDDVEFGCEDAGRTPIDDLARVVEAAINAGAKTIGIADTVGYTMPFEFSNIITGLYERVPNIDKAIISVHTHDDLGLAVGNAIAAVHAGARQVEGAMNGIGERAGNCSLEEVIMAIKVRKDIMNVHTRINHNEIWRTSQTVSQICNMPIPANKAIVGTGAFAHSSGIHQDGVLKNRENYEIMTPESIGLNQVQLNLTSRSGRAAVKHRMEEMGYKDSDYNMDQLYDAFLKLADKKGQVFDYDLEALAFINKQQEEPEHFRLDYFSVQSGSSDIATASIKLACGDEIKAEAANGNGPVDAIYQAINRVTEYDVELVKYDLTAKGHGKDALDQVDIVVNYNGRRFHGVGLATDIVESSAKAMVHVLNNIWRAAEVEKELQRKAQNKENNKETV
Chain of Enterobacter cloacae isopropylmalate synthase (Gene Accession No. WP_014830637, SEQ ID NO: 2) variant 1457, M255L/R260A/N264Q/H97A/S139G/N167G/P169A/G462D (A0A0H3CGL5 entry or part of it G462D/H97A/M255L/N167G/N264Q/P169A/R260A/S139G): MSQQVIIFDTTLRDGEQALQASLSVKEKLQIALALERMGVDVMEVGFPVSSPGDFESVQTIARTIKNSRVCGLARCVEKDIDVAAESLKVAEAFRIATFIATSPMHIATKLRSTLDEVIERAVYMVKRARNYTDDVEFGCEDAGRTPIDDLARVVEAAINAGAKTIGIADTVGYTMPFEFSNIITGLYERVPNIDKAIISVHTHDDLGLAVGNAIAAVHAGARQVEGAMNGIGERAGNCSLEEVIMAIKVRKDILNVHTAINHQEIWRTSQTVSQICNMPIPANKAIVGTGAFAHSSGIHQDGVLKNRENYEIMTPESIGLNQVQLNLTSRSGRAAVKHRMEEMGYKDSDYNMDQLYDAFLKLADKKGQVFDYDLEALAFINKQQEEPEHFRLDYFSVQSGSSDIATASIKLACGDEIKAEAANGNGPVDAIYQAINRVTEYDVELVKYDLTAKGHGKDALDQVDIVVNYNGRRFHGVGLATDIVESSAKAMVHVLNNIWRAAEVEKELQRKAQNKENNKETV
Chain of Citrobacter freundii MGH 56 isopropylmalate synthase (Gene Accession No. KDF09799, SEQ ID NO: 1) variant 1466, G210A/A214S/H97A/S139G/N167G/P169A/G462D (A0A0D7LMP4 entry or part of it A214S/G210A/G462D/H97A/N167G/P169A/S139G): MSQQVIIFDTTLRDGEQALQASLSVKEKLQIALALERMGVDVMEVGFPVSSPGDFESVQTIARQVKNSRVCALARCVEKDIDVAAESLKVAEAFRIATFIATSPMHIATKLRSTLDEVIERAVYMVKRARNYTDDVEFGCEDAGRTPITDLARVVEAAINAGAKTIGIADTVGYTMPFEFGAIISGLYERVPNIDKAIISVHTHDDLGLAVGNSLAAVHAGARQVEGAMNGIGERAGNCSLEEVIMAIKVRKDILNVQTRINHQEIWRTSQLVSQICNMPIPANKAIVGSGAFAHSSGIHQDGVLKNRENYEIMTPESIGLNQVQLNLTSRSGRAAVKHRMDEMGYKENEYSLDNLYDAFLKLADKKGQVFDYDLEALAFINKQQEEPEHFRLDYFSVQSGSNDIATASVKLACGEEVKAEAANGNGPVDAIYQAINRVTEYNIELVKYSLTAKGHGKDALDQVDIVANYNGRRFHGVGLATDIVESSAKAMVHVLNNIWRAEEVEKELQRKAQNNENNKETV

“Enterobacter cloacae isopropylmalate synthase (Gene Accession No. WP_014830637, SEQ ID NO: 2) variant 1457, M255L/R260A/N264Q/H97A/S139G/N167G/P169A/G462D (Enterobacter cloacae subsp. cloacae ATCC 13047; G462D/H97A/M255L/N167G/N264Q/P169A/R260A/S139G)” showed a Km (CCCCCCC(=O)C(=O)O) of 0.176 ± 0.009 mM.

“Enterobacter cloacae isopropylmalate synthase (Gene Accession No. WP_014830637, SEQ ID NO: 2) variant 1460, D348E/D350E/M353L/Q355N/H97A/S139G/N167G/P169A/G462D (Enterobacter cloacae subsp. cloacae ATCC 13047; D348E/D350E/G462D/H97A/M353L/N167G/P169A/Q355N/S139G)” gave a Km (CCCCCCC(=O)C(=O)O) of 0.170 ± 0.007 mM.

Work on “Citrobacter freundii MGH 56 isopropylmalate synthase (Gene Accession No. KDF09799, SEQ ID NO: 1) variant 1409, H97A/S139G/N167G/P169A/G462D (Citrobacter freundii; G462D/H97A/N167G/P169A/S139G)” yielded a Km [1] of 0.45 ± 0.24 mM and a Km (CCCCCCC(=O)C(=O)O) of 0.064 ± 0.009 mM.

For “Enterobacter cloacae isopropylmalate synthase (Gene Accession No. WP_014830637, SEQ ID NO: 2) variant 1414, H97A/S139G/N167G/P169A/G462D (Enterobacter cloacae subsp. cloacae ATCC 13047; G462D/H97A/N167G/P169A/S139G)”, the Km (CCCCCCC(=O)C(=O)O) was 0.124 ± 0.008 mM.

`CCCCCCC(=O)C(=O)O` [2-Ketooctanoic acid, 2-ketooctanoic acid] was tested, and the “kcat (2-ketooctanoic acid)” value [2, 11] was 210 ± 3.5 min⁻¹, the “kcat/KM (2-ketooctanoic acid)” value [2, 11] was 1237 ± 59 min⁻¹ mM⁻¹ and the “kcat (2-ketooctanoic acid)” value [3, 11] was 12.3 ± 0.5 min⁻¹. For the same molecule, the “kcat/KM (2-ketooctanoic acid)” value [3, 11] was 176 ± 18 min⁻¹ mM⁻¹, the “kcat (2-ketooctanoic acid)” value [4, 11] was 148 ± 5 min⁻¹ and the “kcat/KM (2-ketooctanoic acid)” value [4, 11] was 1587 ± 118 min⁻¹ mM⁻¹. The “% more efficient than construct 614 in capturing 2-ketooctanoate (kcat/KM)” value ([5]; vs E. coli construct 614) was 30-40%, the “fold more efficient than parent construct 1409 in capturing 2-ketooctanoate (kcat/KM)” value ([5]; vs parent 1409) was 9 fold and the “kcat (2-ketooctanoic acid)” value [6, 11] was 168 ± 3.9 min⁻¹. For the same molecule, the “kcat/KM (2-ketooctanoic acid)” value [6, 11] was 1355 ± 59 min⁻¹ mM⁻¹, the “kcat (2-ketooctanoic acid)” value [7, 11] was 247 ± 5.4 min⁻¹ and the “kcat/KM (2-ketooctanoic acid)” value [7, 11] was 1413 ± 59 min⁻¹ mM⁻¹.

With `CC(=O)SCCNC(=O)CCNC(=O)[C@H](O)C(C)(C)COP(=O)(O)OP(=O)(O)OC[C@H]1O[C@@H](n2cnc3c(N)ncnc32)[C@H](O)[C@@H]1OP(=O)(O)O` [acetyl CoA, acetyl coenzyme A] the “kcat (acetyl CoA)” value [2, 12] was 206 ± 16 min⁻¹, the “kcat (acetyl CoA)” value [8] was 24 ± 2.4 min⁻¹ and the “kcat (acetyl CoA)” value [3, 12] was 7.1 ± 1.2 min⁻¹. The “kcat (acetyl CoA)” value [4, 12] was 312 ± 15 min⁻¹, the “kcat (acetyl CoA)” value [6, 12] was 141 ± 5 min⁻¹ and the “kcat (acetyl CoA)” value [7, 12] was 230 ± 5 min⁻¹.

Work on “Citrobacter freundii MGH 56 isopropylmalate synthase (Gene Accession No. KDF09799, SEQ ID NO: 1) variant 1467, G181A/A182G/G210A/A214S/H97A/S139G/N167G/P169A/G462D (Citrobacter freundii; A182G/A214S/G181A/G210A/G462D/H97A/N167G/P169A/S139G)” yielded a Km (CCCCCCC(=O)C(=O)O) of 0.092 ± 0.009 mM.

B1: E. coli isopropylmalate synthase (LeuA, Gene Accession No. EG11226) variant 614, H97A/S139G/N167G/P169A/G462D (Escherichia coli K-12; … (protein)
chain: MSQQVIIFDTTLRDGEQALQASLSVKEKLQIALALERMGVDVMEVGFPVSSPGDFESVQTIARQVKNSRVCALARCVEKDIDVAAESLKVAEAFRIATFIATSPMHIATKLRSTLDEVIERAIYMVKRARNYTDDVEFGCEDAGRTPIADLARVVEAAINAGATTIGIADTVGYTMPFEFAGIISGLYERVPNIDKAIISVHTHDDLGLAVGNSLAAVHAGARQVEGAMNGIGERAGNCSLEEVIMAIKVRKDILNVHTAINHQEIWRTSQLVSQICNMPIPANKAIVGSGAFAHSSGIHQDGVLKNRENYEIMTPESIGLNQIQLNLTSRSGRAAVKHRMDEMGYKESEYNLDNLYDAFLKLADKKGQVFDYDLEALAFIGKQQEEPEHFRLDYFSVQSGSNDIATAAVKLACGEEVKAEAANGNGPVDAVYQAINRITEYNVELVKYSLTAKGHGKDALDQVDIVANYNGRRFHGVGLATDIVESSAKAMVHVLNNIWRAAEVEKELQRKAQHNENNKETV
notes: His-tag (13 additional amino acids, six histidines) (N); made in house; host or cells: E. coli BL21 (DE3)
B1 showed a Km [9] of 0.83 ± 0.05 mM, a kcat [9] of 4.4 ± 0.133 s⁻¹ and a kcat/Km [9] of 5370 ± 383 M⁻¹ s⁻¹. For the same molecule, the Km [10] was 0.25 ± 0.035 mM, the kcat [10] was 4.53 ± 0.3 s⁻¹ and the kcat/Km [10] was 18600 ± 1950 M⁻¹ s⁻¹.
